The source of these data is US8865737B2, “Antitumor agent for undifferentiated gastric cancer” (Eisai R&D Management Co., Ltd., priority 2006, dated 2014).

Assay [1] concerns FGFR2. Nature of the assay: FGFR2 phosphorylation in human undifferentiated gastric cancer cell lines (immunoprecipitation, western blotting). It counts as cell-based. The note with it: 1 μM, one hour; KATO-III, SNU-16 and HSC-39 cells (FIG. 1). Here is the method: Human undifferentiated gastric cancer cell lines (KATO-III (purchased from ATCC)), SNU-16 (purchased from ATCC) and HSC-39 (purchased from Immuno-Biological Laboratories)) were suspended in RPMI1640 media (purchased from Sigma) containing 10% FBS (fetal bovine serum). KATO-III, SNU-16 and HSC-39 are cells showing FGFR2 gene amplification (Laboratory Investigation, 78, 1143-1153, 1998), and are also known as scirrhous gastric cancer cell lines. Each 10 mL of the cell suspensions (5×10^5 cells/mL) was placed into a 75 cm^2 cell culture flask (purchased from FALCON) and cultured in a 5% CO2 incubator (37° C.) overnight. In the case of KATO-III, the medium was replaced by an RMPI1640 medium containing 1% FBS. To this, 10 mL of the test substance 4-(3-chloro-4-(cyclopropylaminocarbonyl)aminophenoxy)-7-methoxy-6-quinolinecarboxamide (methanesulfonate) diluted in RPMI1640 containing 1% or 10% FBS was added and cultured in a 5% CO2 incubator (37° C.) for an hour. The culture solution was collected, each flask was washed with 5 mL PBS, and the mixture of the collected culture and the washing solution was centrifuged at 1,000 rpm, at 4° C. for 5 minutes. […]
On the technique in general: In western blotting, separated proteins are transferred to a membrane and probed.

Assay [2] relates to KATO-III. Nature of the assay: Anti-tumor effect, subcutaneous transplanted (xenograft) model. Format: in vivo, nude mice. The conditions noted are these: oral 30 or 100 mg/kg once a day, two-weeks schedule (FIG. 3). As for the experimental part:
(§1) Human undifferentiated gastric cancer cell lines (KATO-III (purchased from ATCC)), SNU-16 (purchased from ATCC) and HSC-39 (purchased from Immuno-Biological Laboratories) were cultured with RPMI1640 (containing 10% FBS) in a 5% CO2 incubator at 37° C. The cells were collected with trypsin-EDTA according to a conventional method. The cells were suspended in a phosphate buffer to prepare a 5×10^7 cells/mL suspension. Each 0.1 mL of the resulting cell suspensions was subcutaneously transplanted into the side of body of nude mice (purchased from Charles River). Following transplantation, the test substance 4-(3-chloro-4-(cyclopropylaminocarbonyl)aminophenoxy)-7-methoxy-6-quinolinecarboxamide (methanesulfonate) dissolved in distilled water for injection (purchased from Otsuka Pharmaceutical) was orally administered at 1, 3, 10, 30 or 100 mg/kg once a day on a four-weeks schedule (except for KATO-III, 30 or 100 mg/kg, once a day, two-weeks schedule) once the tumor volume became (reached) about 100-200 mm^3. The major and minor axes of tumors were measured with Digimatic caliper (Mitsutoyo), and tumor volumes were calculated according to the following formulae. Tumor Volume (TV)=Major axis of tumor (mm)×(Minor axis of tumor)^2 (mm^2)/2

Assay [3] deals with SNU-16. The assay is described as above. Format: in vivo, nude mice. The note with it: SNU-16 xenograft, oral 1, 3, 10, 30 or 100 mg/kg once a day, four-weeks schedule (FIG. 3). Here is the method: as §1
Assay [4] deals with HSC-39. The description is as above. The note with it: HSC-39 xenograft, oral 1, 3, 10, 30 or 100 mg/kg once a day, four-weeks schedule (FIG. 3). It counts as in vivo, nude mice. Here is the method: as §1
Assay [5] relates to HSC-39. Description: Apoptosis of human undifferentiated gastric cancer cell line (PARP / caspase-3 fragmentation, western blotting). It counts as cell-based. The note with it: 1 μM, HSC-39, one or three days (FIG. 2). Here is the method:
Human undifferentiated gastric cancer cell line HSC-39 (purchased from Immuno-Biological Laboratories) was suspended in an RPMI1640 medium (purchased from Sigma) containing 10% FBS. Five mL of the cell suspension (4×10^5 cells/mL) was placed into a […] (purchased from FALCON). To this, 5 mL of the test substance 4-(3-chloro-4-(cyclopropylaminocarbonyl)aminophenoxy)-7-methoxy-6-quinolinecarboxamide (methanesulfonate) diluted in an RPMI1640 medium containing 10% FBS was added and cultured in a 5% CO2 incubator (37° C.) for one or three days. The culture solution was collected and each flask was washed with 5 mL PBS. The mixture of the collected culture solution and the washing solution was centrifuged at 1,000 rpm, at 4° C. for 5 minutes. For precipitation, 100 μL of a lysis buffer (50 mM Hepes (pH 7.4), 150 mM NaCl, 10% (v/v) glycerol, 1% Triton X-100, 1.5 mM MgCl2, 1 mM EDTA (pH 8.0), 100 mM NaF, 1 mM PMSF, 10 μg/mL Aprotinin, 50 μg/mL Leupeptin, 1 μg/mL Pepstatin A, 1 mM Na3VO4) was added to solubilize the cells. This solution was collected and centrifugated at 15,000 rpm, at 4° C. for 15 minutes. An SDS buffer was added to the supernatant to prepare a 25 μg/15 μL solution and the resultant was treated at 94° C. for 5 minutes to solubilize the protein, which was prepared as a cell sample solution. […]

The test system of assay [6] is FGFR2. Description: FGFR2 phosphorylation in tumor tissues of subcutaneous transplanted (xenograft) models. It counts as in vivo, nude mice. The note with it: SNU-16 and HSC-39 xenografts, oral 10, 30 or 100 mg/kg, tumors removed two hours after administration (FIG. 4). As for the experimental part:
Human undifferentiated gastric cancer cell lines (SNU-16 (purchased from ATCC) and HSC-39 (purchased from Immuno-Biological Laboratories) were cultured with RPMI1640 (containing 10% FBS) in a 5% CO2 incubator (37° C.) and cells were collected with trypsin-EDTA according to a conventional method. The cells were suspended in a phosphate buffer to prepare a 5×10^7 cells/mL suspension. Each 0.1 mL of the resulting cell suspensions was subcutaneously transplanted into the side of body of nude mice (purchased from Charles River).
Following transplantation, the test substance 4-(3-chloro-4-(cyclopropylaminocarbonyl)aminophenoxy)-7-methoxy-6-quinolinecarboxamide (methanesulfonate) dissolved in distilled water for injection (purchased from Otsuka Pharmaceutical) was orally administered at 10, 30 or 100 mg/kg once the tumor volume became (reached) about 400-800 mm^3. Tumors were removed two hours after the administration, to which a lysis buffer (50 mM Hepes (pH 7.4), 150 mM NaCl, 10% (v/v) glycerol, 1% TritonX-100, 1.5 mM MgCl2, 1 mM EDTA (pH 8.0), 100 mM NaF, 1 mM PMSF, 10 μg/mL Aprotinin, 50 μg/mL Leupeptin, 1 μg/mL Pepstatin A, 1 mM Na3VO4) and 25 mM β-glycerophosphate and phosphatase inhibitor cocktail II (SIGMA)) was added for homogenization. The resultant was centrifugated at 15,000 rpm, at 4° C. for 15 minutes. 1000 μg/500 μL of The supernatant was prepared as a tumor extract. […]

For assay [7], the target named is T1, FGFR2 recombinant protein (Homo sapiens, UniProt P21802).
T1 construct: purchased Upstate (UK)
T1 sequence (P21802 22-821): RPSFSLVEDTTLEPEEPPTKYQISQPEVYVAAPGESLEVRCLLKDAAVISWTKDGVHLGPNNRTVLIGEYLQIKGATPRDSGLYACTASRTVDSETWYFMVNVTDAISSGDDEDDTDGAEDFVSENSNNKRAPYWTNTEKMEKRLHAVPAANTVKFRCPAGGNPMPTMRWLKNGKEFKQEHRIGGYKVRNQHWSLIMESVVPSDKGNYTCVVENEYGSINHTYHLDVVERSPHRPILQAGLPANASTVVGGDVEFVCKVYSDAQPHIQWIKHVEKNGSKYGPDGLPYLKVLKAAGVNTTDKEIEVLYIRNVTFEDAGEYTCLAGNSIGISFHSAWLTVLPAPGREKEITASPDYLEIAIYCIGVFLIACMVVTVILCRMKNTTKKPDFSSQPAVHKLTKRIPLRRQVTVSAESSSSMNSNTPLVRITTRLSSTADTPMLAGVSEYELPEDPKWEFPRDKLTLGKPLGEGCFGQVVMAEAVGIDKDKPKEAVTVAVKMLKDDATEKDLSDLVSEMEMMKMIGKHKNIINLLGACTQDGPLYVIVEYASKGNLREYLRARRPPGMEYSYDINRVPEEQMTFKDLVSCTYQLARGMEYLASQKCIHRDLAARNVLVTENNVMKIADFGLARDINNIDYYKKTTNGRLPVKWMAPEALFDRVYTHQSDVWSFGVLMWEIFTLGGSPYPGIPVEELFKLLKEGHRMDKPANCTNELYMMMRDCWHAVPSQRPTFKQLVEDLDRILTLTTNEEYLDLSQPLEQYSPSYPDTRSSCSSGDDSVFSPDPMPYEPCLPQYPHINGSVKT
Description: FGFR2 kinase inhibitory activity (cell free kinase assay, Upstate). It counts as biochemical. The conditions noted are these: poly(Glu, Tyr)4:1 substrate, [γ-33P]-ATP, 40 minutes at room temperature.
Description: Specifically, the FGFR2 kinase inhibitory activity was measured as follows.
MgATP was added to 25 μL of solution containing 5-10 mU of FGFR2 recombinant protein, 8 mM MOPS (pH 7.0), 0.2 mM EDTA, 2.5 mM MnCl2, 0.1 mg/ml poly (Glu, Tyr)4:1, 10 mM Mg Acetate, 500 cpm/mol [γ-^33P]-ATP and a test substance to initiate reaction.
Following 40 minutes of reaction at room temperature, 5 μL of 3% phosphoric acid was added to terminate the reaction. 10 μL of the reaction solution was spotted on Filtermat A, which was washed with 75 mM phosphoric acid for five times and once with ethanol and then dried. The radioactivity of the spot was determined (measured).
In this regard, a value obtained when substrate Poly(Glu, Tyr)4:1 was contained but not the FGFR2 recombinant protein was assumed 0% value while a value obtained when the FGFR2 recombinant protein and substrate Poly(Glu, Tyr)4:1 were contained but not the test substance was assumed 100% value.
The kinase activity in the presence of the test substance at each concentration was calculated as percentage of the value obtained by subtracting the 0% value from each radioactivity value to the value obtained by subtracting the 0% value from the 100% value.

Assay [8] relates to KATO-III. Nature of the assay: Cell proliferation, Cell Counting Kit-8. It counts as cell-based. The note with it: Homo sapiens, 72 h, 1% FBS, three days, read-out: inhibition of cell proliferation IC50. As for the experimental part:
(§2) Human undifferentiated gastric cancer cell lines (KATO-III (purchased from ATCC)), SNU-16 (purchased from ATCC) and HSC-39 (purchased from Immuno-Biological Laboratories)) were suspended in RPMI1640 media (purchased from Sigma) containing 10% FBS except that KATO-III was suspended in an RMPI1640 medium containing 1% FBS. The cell suspensions (KATO-III: 6×10^4 cells/mL; SNU-16 and HSC-39: 2×10^4 cells/mL) were placed into a 96-well cell culture plate (purchased from NUNC) at 0.1 mL/well and cultured in a 5% CO2 incubator (37° C.) overnight. Following cultivation, 0.1 mL of the test substance 4-(3-chloro-4-(cyclopropylaminocarbonyl)aminophenoxy)-7-methoxy-6-quinolinecarboxamide (methanesulfonate) diluted in an RPMI1640 medium containing 1% or 10% FBS was added to each well and further cultured in a 5% CO2 incubator (37° C.) for three days. Following cultivation, 20 μL of Cell Counting Kit-8 (purchased from DOJINDO) was added to each well and allowed to develop color in a 5% CO2 incubator (37° C.) to determine (measure) the absorbance of each well by using a plate reader MTP-500 (Corona Electric) at a measurement wavelength of 450 nm and a reference wavelength of 660 nm.

The subject of assay [9] is SNU-16. Description: Cell proliferation, Cell Counting Kit-8. It counts as cell-based. The conditions noted are these: Homo sapiens, 72 h; SNU-16, 10% FBS, three days; read-out: inhibition of cell proliferation IC50. Here is the method:
as §2

Assay [10] has as its system HSC-39. Nature of the assay: Cell proliferation, Cell Counting Kit-8. It counts as cell-based. The conditions noted are these: Homo sapiens, 72 h; HSC-39, 10% FBS, three days; read-out: inhibition of cell proliferation IC50. As for the experimental part:
as §2
(Tetrazolium assays rely on reduction of a dye to a coloured formazan, in cell work by metabolically active cells.)

Bounds are passed on as bounds.

Regarding `COc1cc2nccc(Oc3ccc(NC(=O)NC4CC4)c(Cl)c3)c2cc1C(N)=O` [4-(3-chloro-4-(cyclopropylaminocarbonyl)aminophenoxy)-7-methoxy-6-quinolinecarboxamide], the “phosphorylation of FGFR2” value with FGFR2 [1] is on record as “almost completely inhibited”. Further, the “anti-tumor effect (tumor volume)” value in the assay with KATO-III [2], with SNU-16 [3] and in the assay on HSC-39 [4] was “dose-dependent anti-tumor effect” throughout. The cleaved-PARP entry in the assay with HSC-39 [5] is “clearly detected”. Further, the cleaved-caspase-3 result in the assay with HSC-39 [5] is “clearly detected”. For the same compound, the “phosphorylation of FGFR2 in tumor” value in the assay with FGFR2 [6] is “inhibit phosphorylation of FGFR2”. Also, the IC50 in [7] was less than 10 nM; in the assay on KATO-III [8] it was 141 nM; in the assay with SNU-16 [9], 251 nM; in the assay on HSC-39 [10], 157 nM.
